Data taken from patent US10670605B2, “Cysteine reactive probes and uses thereof” (The Scripps Research Institute, priority 2015, dated 2020).
Where “and” joins values, the source holds several entries; their conditions need not be identical. Identical values can stand only once.

Tests used:
Test in all cases: Competitive isoTOP-ABPP, cell lysates
Type in all cases: binding
[1] = biological target: T1, AIP C122 (O00170) (Homo sapiens, UniProt O00170); settings: for R value (DMSO/fragment) / isoTOP-ABPP ratio, O00170_C122: 500 μM
T1 sequence (O00170 1-330): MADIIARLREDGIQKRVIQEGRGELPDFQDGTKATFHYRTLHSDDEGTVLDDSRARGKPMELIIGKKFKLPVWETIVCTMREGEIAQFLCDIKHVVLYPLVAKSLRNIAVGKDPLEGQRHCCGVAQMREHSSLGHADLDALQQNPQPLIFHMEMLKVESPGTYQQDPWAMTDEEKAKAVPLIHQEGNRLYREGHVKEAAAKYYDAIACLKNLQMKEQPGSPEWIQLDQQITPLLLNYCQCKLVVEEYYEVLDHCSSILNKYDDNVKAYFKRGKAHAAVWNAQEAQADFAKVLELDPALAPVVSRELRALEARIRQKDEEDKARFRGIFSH

[2] = biological target: T2, PDE12 C108 (Q6L8Q7) (Homo sapiens, UniProt Q6L8Q7); settings: for R value (DMSO/fragment) / isoTOP-ABPP ratio, Q6L8Q7_C108: 500 μM
T2 sequence (Q6L8Q7 43-609): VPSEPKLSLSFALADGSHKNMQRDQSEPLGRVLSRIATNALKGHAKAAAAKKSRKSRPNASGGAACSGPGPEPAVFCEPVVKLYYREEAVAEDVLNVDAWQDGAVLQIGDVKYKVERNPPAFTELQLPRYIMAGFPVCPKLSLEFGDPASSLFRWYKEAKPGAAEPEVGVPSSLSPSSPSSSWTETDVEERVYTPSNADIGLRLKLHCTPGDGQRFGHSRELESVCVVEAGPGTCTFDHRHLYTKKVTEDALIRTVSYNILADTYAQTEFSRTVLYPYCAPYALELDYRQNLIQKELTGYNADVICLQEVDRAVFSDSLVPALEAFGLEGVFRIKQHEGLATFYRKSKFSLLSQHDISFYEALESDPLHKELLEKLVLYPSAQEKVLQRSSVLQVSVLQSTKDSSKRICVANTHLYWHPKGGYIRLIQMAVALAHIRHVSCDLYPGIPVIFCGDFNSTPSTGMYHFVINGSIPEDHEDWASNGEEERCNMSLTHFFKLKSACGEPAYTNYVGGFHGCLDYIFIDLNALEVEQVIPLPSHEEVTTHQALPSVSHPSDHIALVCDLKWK

[3] = biological target: DCUN1D1 C115 (Q96GG9) (Homo sapiens, UniProt Q96GG9)
[4] = biological target: PRMT1 C109 (Q99873) (Homo sapiens, UniProt Q99873); settings: for R value (DMSO/fragment) / isoTOP-ABPP ratio, Q99873_C109: 500 μM
[5] = biological target: XPO1 C34 (O14980) (Homo sapiens, UniProt O14980); settings: for R value (DMSO/fragment) / isoTOP-ABPP ratio, O14980_C34: 500 μM
[6] = biological target: T3, UCHL3 C95 (P15374) (Homo sapiens, UniProt P15374); settings: for R value (DMSO/fragment) / isoTOP-ABPP ratio, P15374_C95: 500 μM
T3 sequence (P15374 1-230): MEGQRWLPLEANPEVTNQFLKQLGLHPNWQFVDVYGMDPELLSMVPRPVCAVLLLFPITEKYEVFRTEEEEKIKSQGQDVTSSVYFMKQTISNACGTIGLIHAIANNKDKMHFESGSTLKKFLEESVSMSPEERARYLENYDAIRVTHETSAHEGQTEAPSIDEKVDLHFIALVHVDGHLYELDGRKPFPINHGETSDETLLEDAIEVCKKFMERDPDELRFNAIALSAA

[7] = biological target: T4, ADA C75 (P00813) (Homo sapiens, UniProt P00813)
T4 sequence (P00813 1-363): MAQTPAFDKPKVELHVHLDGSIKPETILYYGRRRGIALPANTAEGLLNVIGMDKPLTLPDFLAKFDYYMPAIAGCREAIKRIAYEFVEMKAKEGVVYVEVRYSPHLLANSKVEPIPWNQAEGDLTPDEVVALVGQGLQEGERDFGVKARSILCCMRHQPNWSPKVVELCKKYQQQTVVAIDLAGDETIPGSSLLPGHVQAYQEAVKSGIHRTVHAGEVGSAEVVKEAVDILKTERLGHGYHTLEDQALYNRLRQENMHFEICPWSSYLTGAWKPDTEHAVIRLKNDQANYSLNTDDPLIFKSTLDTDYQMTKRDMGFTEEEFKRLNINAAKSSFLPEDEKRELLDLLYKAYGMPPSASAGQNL

PRMT1 C109 (Q99873), sequence (Q99873 whole entry, the tested form may be a part): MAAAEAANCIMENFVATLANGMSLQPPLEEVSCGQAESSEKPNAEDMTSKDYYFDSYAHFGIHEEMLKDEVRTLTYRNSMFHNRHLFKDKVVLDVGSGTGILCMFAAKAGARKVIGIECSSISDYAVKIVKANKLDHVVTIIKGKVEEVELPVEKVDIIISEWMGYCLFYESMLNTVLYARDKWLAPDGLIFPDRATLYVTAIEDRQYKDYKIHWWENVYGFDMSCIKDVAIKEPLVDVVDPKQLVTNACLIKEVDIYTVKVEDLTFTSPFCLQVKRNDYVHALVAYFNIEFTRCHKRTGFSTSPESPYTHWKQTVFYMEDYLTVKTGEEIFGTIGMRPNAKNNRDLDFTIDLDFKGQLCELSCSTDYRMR
XPO1 C34 (O14980), sequence (O14980 whole entry, the tested form may be a part): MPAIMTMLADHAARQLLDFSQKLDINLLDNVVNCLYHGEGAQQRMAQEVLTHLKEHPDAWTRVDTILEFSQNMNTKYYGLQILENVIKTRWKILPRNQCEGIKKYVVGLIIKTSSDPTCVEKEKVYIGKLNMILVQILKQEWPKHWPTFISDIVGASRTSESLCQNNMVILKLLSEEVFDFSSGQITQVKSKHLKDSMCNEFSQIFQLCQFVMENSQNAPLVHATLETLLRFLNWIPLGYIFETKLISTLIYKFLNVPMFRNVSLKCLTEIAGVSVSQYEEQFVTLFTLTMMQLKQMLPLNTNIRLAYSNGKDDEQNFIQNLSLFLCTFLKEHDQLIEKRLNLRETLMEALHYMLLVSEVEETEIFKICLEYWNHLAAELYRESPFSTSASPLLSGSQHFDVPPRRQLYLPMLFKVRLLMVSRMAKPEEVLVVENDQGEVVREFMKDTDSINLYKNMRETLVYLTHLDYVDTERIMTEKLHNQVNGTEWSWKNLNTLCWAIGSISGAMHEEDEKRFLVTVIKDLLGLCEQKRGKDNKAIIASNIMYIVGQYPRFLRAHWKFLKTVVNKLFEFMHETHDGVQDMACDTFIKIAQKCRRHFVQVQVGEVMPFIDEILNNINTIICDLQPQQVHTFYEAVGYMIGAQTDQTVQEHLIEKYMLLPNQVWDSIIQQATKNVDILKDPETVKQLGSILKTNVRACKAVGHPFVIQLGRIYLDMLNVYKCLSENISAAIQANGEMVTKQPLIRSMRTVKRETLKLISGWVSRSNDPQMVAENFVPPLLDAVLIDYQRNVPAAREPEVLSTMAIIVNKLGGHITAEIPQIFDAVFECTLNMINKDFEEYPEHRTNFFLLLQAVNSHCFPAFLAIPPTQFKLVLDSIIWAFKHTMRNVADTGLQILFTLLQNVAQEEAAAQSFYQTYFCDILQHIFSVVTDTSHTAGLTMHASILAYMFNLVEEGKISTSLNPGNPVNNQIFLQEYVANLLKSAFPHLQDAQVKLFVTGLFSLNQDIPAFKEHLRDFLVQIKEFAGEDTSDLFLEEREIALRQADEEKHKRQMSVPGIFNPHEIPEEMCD
DCUN1D1 C115 (Q96GG9), sequence (Q96GG9 whole entry, the tested form may be a part): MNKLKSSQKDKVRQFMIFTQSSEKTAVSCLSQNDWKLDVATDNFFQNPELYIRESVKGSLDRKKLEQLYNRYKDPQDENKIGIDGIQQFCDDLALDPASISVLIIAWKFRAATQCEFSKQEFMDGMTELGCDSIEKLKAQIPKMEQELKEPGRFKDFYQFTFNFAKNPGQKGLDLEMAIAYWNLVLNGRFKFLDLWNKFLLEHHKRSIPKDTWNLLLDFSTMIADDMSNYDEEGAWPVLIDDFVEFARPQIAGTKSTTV

Row | SMILES | isoTOP-ABPP ratio, Q99873_C109 ([4]; invitro, 231) | isoTOP-ABPP ratio (reactivity profile), O00170_C122 ([1]; 500 μm in-vitro ramos) | isoTOP-ABPP ratio (reactivity profile), Q96GG9_C115 ([3]; 500 μm in-vitro ramos) | isoTOP-ABPP ratio (reactivity profile), Q99873_C109 ([4]; 500 μm in-vitro ramos) | isoTOP-ABPP ratio (reactivity profile), O14980_C34 ([5]; 500 μm in-vitro ramos) | isoTOP-ABPP ratio (reactivity profile), P15374_C95 ([6]; 500 μm in-vitro ramos) | isoTOP-ABPP ratio (reactivity profile), P00813_C75 ([7]; 500 μm in-vitro ramos) | isoTOP-ABPP ratio (reactivity profile), Q6L8Q7_C108 ([2]; 500 μm in-vitro ramos_231) | isoTOP-ABPP ratio (reactivity profile), Q99873_C109 ([4]; 500 μm in-vitro ramos_231) | isoTOP-ABPP ratio (reactivity profile), O14980_C34 ([5]; 500 μm in-vitro ramos_231) | isoTOP-ABPP ratio (reactivity profile), P15374_C95 ([6]; 500 μm in-vitro ramos_231) | isoTOP-ABPP ratio (reactivity profile), Q6L8Q7_C108 ([2]; 500 μm in-vitro ramos) | also measured
1 | O=C(CCl)Nc1cc(C(F)(F)F)cc(C(F)(F)F)c1 [compound 3] |  |  |  |  |  |  |  |  |  |  |  |  | R value (DMSO/fragment) ([1]; in vitro, MDA-MB-231): 7.0; R value (DMSO/fragment) ([1]; invitro, ramos): 3.1; R value (DMSO/fragment) ([2]; in vitro, MDA-MB-231): 3.6; R value (DMSO/fragment) ([2]; invitro, ramos): 1.8; R value (DMSO/fragment) ([3]; 500 μM, invitro, ramos): 5.5; R value (DMSO/fragment) ([4]; in vitro, MDA-MB-231): 1.3; R value (DMSO/fragment) ([4]; invitro, ramos): 1.8; R value (DMSO/fragment) ([5]; in vitro, MDA-MB-231): 1.4; R value (DMSO/fragment) ([5]; invitro, ramos): 1.6; R value (DMSO/fragment) ([6]; in vitro, MDA-MB-231): 1.7; R value (DMSO/fragment) ([6]; invitro, ramos): 1.4; R value (DMSO/fragment) ([7]; 500 μM, invitro, ramos): 1.5
2 | Cn1cc(S(=O)(=O)N2CCOCC2)cc1C(=O)NC(=O)CCl [compound 11] | 20.0 |  |  |  |  |  |  |  |  |  |  |  | isoTOP-ABPP ratio, O00170_C122 ([1]; invitro, ramos): 2.8; isoTOP-ABPP ratio, Q6L8Q7_C108 ([2]; invitro, 231): 4.2; isoTOP-ABPP ratio, Q96GG9_C115 ([3]; 500 μM, invitro, ramos): 0.9; isoTOP-ABPP ratio, Q99873_C109 ([4]; invitro, ramos): 20.0; blockade of IA-alkyne labeling of C109 of PRMT1 ([4]; competitive isoTOP-ABPP): blocking IA-alkyne labeling; isoTOP-ABPP ratio, O14980_C34 ([5]; invitro, 231): 1.2; isoTOP-ABPP ratio, O14980_C34 ([5]; invitro, ramos): 1.0; isoTOP-ABPP ratio, P15374_C95 ([6]; invitro, 231): 0.8; isoTOP-ABPP ratio, P15374_C95 ([6]; invitro, ramos): 0.8; isoTOP-ABPP ratio, P00813_C75 ([7]; 500 μM, invitro, ramos): 7.5
3 | O=C(CCl)NC(=O)NC12CC3CC(CC(C3)C1)C2 [compound 12] | 1.4 |  |  |  |  |  |  |  |  |  |  |  | isoTOP-ABPP ratio, O00170_C122 ([1]; invitro, ramos): 1.3; isoTOP-ABPP ratio, Q6L8Q7_C108 ([2]; invitro, ramos): 1.5; isoTOP-ABPP ratio, Q96GG9_C115 ([3]; 500 μM, invitro, ramos): 0.6; isoTOP-ABPP ratio, Q99873_C109 ([4]; invitro, ramos): 1.3; isoTOP-ABPP ratio, O14980_C34 ([5]; invitro, 231): 1.2; isoTOP-ABPP ratio, O14980_C34 ([5]; invitro, ramos): 0.7; isoTOP-ABPP ratio, P15374_C95 ([6]; invitro, ramos): 0.5; isoTOP-ABPP ratio, P00813_C75 ([7]; 500 μM, invitro, ramos): 0.7
4 | C=CC(=O)N(Cc1cccnc1)c1ccc(Oc2ccccc2)c(C(F)(F)F)c1 [compound 15] | 0.9 | 1.4 | 0.8 | 1.2 | 1.2 | 0.7 | 1.1 |  |  |  |  |  | isoTOP-ABPP ratio, Q6L8Q7_C108 ([2]; invitro, 231): 1.1
5 | O=C(CCl)N1CCC(C(O)(c2ccccc2)c2ccccc2)CC1 [compound 20] |  | 2.2 | 1.2 | 2.2 | 1.2 | 0.9 | 1.5 | 1.6 | 1.9 | 1.0 | 1.0 |  | isoTOP-ABPP ratio (reactivity profile), Q96GG9_C115 ([3]; 500 μm in-vitro ramos_231): 1.2
6 | N#C/C(=C\c1cc(C(F)(F)F)cc(C(F)(F)F)c1)C(N)=O [compound 23] |  | 1.4 | 20.0 | 1.0 | 5.3 | 1.1 | 1.1 | 1.0 | 0.8 | 3.4 | 0.8 |  | isoTOP-ABPP ratio (reactivity profile), O00170_C122 ([1]; 500 μm in-vitro ramos_231): 0.7
7 | CC(Br)C(=O)Nc1cc(C(F)(F)F)cc(C(F)(F)F)c1 (stereo not shown) [compound 24] |  | 1.3 | 1.7 | 1.0 | 1.1 | 1.1 | 1.2 |  |  |  |  | 1.4 | 
8 | O=C(/C=C/c1ccccc1)Nc1cc(C(F)(F)F)cc(C(F)(F)F)c1 [compound 26] |  | 0.9 | 0.9 | 0.9 | 0.9 | 0.8 | 0.8 |  |  |  |  | 1.1 | 
9 | CC(C)CCOCCNC(=O)CCl [compound 27] |  | 1.0 | 1.0 | 1.0 | 1.0 | 1.0 | 1.0 | 0.5 | 0.7 and 0.9 | 0.9 and 1.0 | 0.4 | 1.3 | isoTOP-ABPP ratio (reactivity profile), O00170_C122 ([1]; 500 μm in-vitro ramos_231): 0.4; isoTOP-ABPP ratio (reactivity profile), Q96GG9_C115 ([3]; 500 μm in-vitro ramos_231): 1.1; isoTOP-ABPP ratio (reactivity profile), P00813_C75 ([7]; 500 μm in-vitro ramos_231): 1.1
10 | CCN(CC)c1ccc(S(N)(=O)=O)cc1NC(=O)CCl [compound 30] |  | 1.1 | 0.7 | 1.1 | 0.7 | 0.7 |  |  |  |  |  | 1.1 | isoTOP-ABPP reactivity ratio, O00170_C122 ([1]; 500 μm, in-vitro_ramos): 2.0; isoTOP-ABPP reactivity ratio, Q6L8Q7_C108 ([2]; 500 μm, in-vitro_ramos): 1.6; isoTOP-ABPP reactivity ratio, Q96GG9_C115 ([3]; 500 μm, in-vitro_ramos): 1.1; isoTOP-ABPP reactivity ratio, Q99873_C109 ([4]; 500 μm, in-vitro_ramos): 1.8; isoTOP-ABPP reactivity ratio, O14980_C34 ([5]; 500 μm, in-vitro_ramos): 1.1; isoTOP-ABPP reactivity ratio, P15374_C95 ([6]; 500 μm, in-vitro_ramos): 1.0; isoTOP-ABPP reactivity ratio, P00813_C75 ([7]; 500 μm, in-vitro_ramos): 3.1
